Earlier results in publication PMC6838683, “Discovery of Human Signaling Systems: Pairing Peptides to G Protein-Coupled Receptors” (Cell, 2019).
Like-named read-outs stand apart in the source and are kept apart here. Residues, ends and D or L forms follow the SMILES beside them. No end group written: not given here.

Molecular target: human GPCRs
Parameters: method as in Guide to Pharmacology database
Details: max reported value, ref Guide to Pharmacology database, cited from earlier work
From the text: Supplement mmc1.xlsx, sheet "HumanGPCRLigands" | column: pKi_value; pKd_value; pEC50_value; pIC50_value

[1] = receptor TACR1 (nk1r_human, P25103)
[2] = receptor TACR2 (nk2r_human, P21452)
[3] = receptor TACR3 (nk3r_human, P29371)
[4] = receptor taar1_human (TAAR1, Q96RJ0)
[5] = receptor AVPR1A (v1ar_human, P37288)
[6] = receptor AVPR1B (v1br_human, P47901)
[7] = receptor AVPR2 (v2r_human, P30518)
[8] = receptor OXTR (oxyr_human, P30559)
[9] = receptor S1PR1 (s1pr1_human, P21453)
[10] = receptor S1PR2 (s1pr2_human, O95136)
[11] = receptor S1PR3 (s1pr3_human, Q99500)
[12] = receptor S1PR4 (s1pr4_human, O95977)
[13] = receptor gasr_human (CCKBR, P32239)
[14] = receptor CCR2 (ccr2_human, P41597)
[15] = receptor CCR3 (ccr3_human, P51677)
[16] = receptor CCR5 (ccr5_human, P51681)
[17] = receptor CCR1 (ccr1_human, P32246)
[18] = receptor CCR7 (ccr7_human, P32248)

CSCC[C@H](NC(=O)[C@H](CC(C)C)NC(=O)CNC(=O)[C@@H](NC(=O)[C@H](Cc1ccccc1)NC(=O)[C@H](Cc1ccccc1)NC(=O)[C@H](CC(=O)O)NC(=O)[C@H](Cc1cnc[nH]1)NC(=O)[C@H](CCSC)NC(=O)[C@@H](N)CC(=O)O)C(C)C)C(N)=O [neurokinin B]
pKi_value [1]: 6.4 | pKi_value [2]: 7.7 | pEC50_value [3]: 8.4 | pKi_value [3]: 9.2

CSCC[C@H](NC(=O)CNC(=O)[C@@H](NC(=O)CNC(=O)[C@@H](NC(=O)CNC(=O)[C@H](CC(N)=O)NC(=O)[C@H](CCCNC(=N)N)NC(=O)[C@H](Cc1ccccc1)NC(=O)[C@@H](N)CO)C(C)C)[C@@H](C)O)C(=O)N[C@@H](CCCCN)C(=O)N[C@@H](CCCCN)C(=O)N[C@H](C(=O)N[C@@H](CO)C(=O)N[C@@H](Cc1ccccc1)C(=O)N[C@@H](CCC(N)=O)C(=O)N[C@@H](CCCNC(=N)N)C(=O)N[C@@H](C)C(=O)N[C@@H](CCCCN)C(=O)N[C@@H](CO)C(=O)O)[C@@H](C)O [neuropeptide S] (H-SFRNGVGTGMKKTSFQRAKS-OH)
pEC50_value (receptor npsr1_human (NPSR1, Q6W5P4)): 8

NCC(O)c1ccc(O)cc1 (stereo not shown) [octopamine]
pEC50_value [4]: 5.8

CC[C@H](C)[C@H](NC(=O)[C@H](CC(C)C)NC(=O)[C@@H](NC(=O)[C@@H](N)CCSC)[C@@H](C)O)C(=O)NCC(=O)N[C@@H](C)C(=O)N[C@@H](C)C(=O)N[C@@H](Cc1cnc[nH]1)C(=O)N[C@@H](CC(N)=O)C(=O)NCC(=O)N[C@@H](CO)C(=O)N[C@@H](C)C(=O)N[C@@H](CCC(N)=O)C(=O)N[C@@H](CC(C)C)C(=O)N[C@@H](CC(C)C)C(=O)N[C@@H](CCCN=C(N)N)C(=O)N[C@@H](CCC(N)=O)C(=O)N[C@@H](CC(C)C)C(=O)N[C@@H](CCCN=C(N)N)C(=O)NCC(=O)N[C@@H](CCC(N)=O)C(=O)N[C@@H](CC(C)C)C(=O)NCC(=O)N1CCC[C@H]1C(=O)N1CCC[C@H]1C(=O)NCC(=O)N[C@@H](CO)C(=O)N[C@@H](CCCN=C(N)N)C(N)=O [orexin-B] (H-MTLIGAAHNGSAQLLRQLRGQLGPPGSR-NH2)
pEC50_value (receptor HCRTR1 (ox1r_human, O43613)): 9.2 | pEC50_value (receptor HCRTR2 (ox2r_human, O43614)): 10

CC[C@H](C)[C@@H]1NC(=O)[C@H](Cc2ccc(O)cc2)NC(=O)[C@@H](N)CSSC[C@@H](C(=O)N2CCC[C@H]2C(=O)N[C@@H](CC(C)C)C(=O)NCC(N)=O)NC(=O)[C@H](CC(N)=O)NC(=O)[C@H](CCC(N)=O)NC1=O [oxytocin]
pKi_value [5]: 8.3 | pKi_value [6]: 7 | pKi_value [7]: 6.8 | pKi_value [8]: 9.6

CCCCCCCCCCCCC/C=C/[C@@H](O)[C@@H](N)COP(=O)(O)O [sphingosine 1-phosphate]
pEC50_value [9]: 9.4 | pKd_value [9]: 9.4 | pEC50_value [10]: 8.5 | pKd_value [10]: 7.7 | pEC50_value [11]: 9.8 | pKd_value [11]: 9.6 | pEC50_value [12]: 8.1 | pIC50_value [12]: 7 | pEC50_value (receptor S1PR5 (s1pr5_human, Q9H228)): 8.9 | pEC50_value (receptor gpr3_human (GPR3), Class A orphans): 7.7 | pEC50_value (receptor gpr12_human (GPR12), Class A orphans): 7 | pEC50_value (receptor gpr63_human (GPR63), Class A orphans): 6.2 | pEC50_value (receptor p2y10_human (P2RY10), Class A orphans): 7.3

CSCC[C@H](NC(=O)[C@H](CC(C)C)NC(=O)CNC(=O)[C@H](Cc1ccccc1)NC(=O)[C@H](Cc1ccccc1)NC(=O)[C@H](CCC(N)=O)NC(=O)[C@H](CCC(N)=O)NC(=O)[C@@H]1CCCN1C(=O)[C@H](CCCCN)NC(=O)[C@@H]1CCCN1C(=O)[C@@H](N)CCCN=C(N)N)C(N)=O [substance P]
pKi_value [1]: 10.3 | pKi_value [2]: 6.9 | pKi_value [3]: 6

O=C(O)CCC(=O)O [succinic acid]
pEC50_value (receptor sucr1_human (SUCNR1), Succinate receptors): 4.7

NCCc1ccc(O)cc1 [tyramine]
pEC50_value [4]: 6.7

O=c1ccn([C@@H]2O[C@H](COP(=O)(O)OP(=O)(O)O)[C@@H](O)[C@H]2O)c(=O)[nH]1 [uridine diphosphate]
pEC50_value (receptor p2ry6_human (P2RY6), P2Y receptors): 6.5

CC(C)[C@H](NC(=O)[C@@H]1CSSC[C@H](NC(=O)[C@H](CC(=O)O)NC(=O)[C@@H]2CCCN2C(=O)[C@@H](NC(=O)[C@@H](N)CCC(=O)O)[C@@H](C)O)C(=O)N[C@@H](Cc2ccccc2)C(=O)N[C@@H](Cc2c[nH]c3ccccc23)C(=O)N[C@@H](CCCCN)C(=O)N[C@@H](Cc2ccc(O)cc2)C(=O)N1)C(=O)O [urotensin-II]
pKi_value (receptor UTS2R (ur2r_human, Q9UKP6)): 8.6

NC(=O)CC[C@@H]1NC(=O)[C@H](Cc2ccccc2)NC(=O)[C@H](Cc2ccc(O)cc2)NC(=O)[C@@H](N)CSSC[C@@H](C(=O)N2CCC[C@H]2C(=O)N[C@@H](CCCN=C(N)N)C(=O)NCC(N)=O)NC(=O)[C@H](CC(N)=O)NC1=O [vasopressin]
pKi_value [5]: 9.3 | pKi_value [6]: 9.5 | pKi_value [7]: 9.1 | pKi_value [8]: 9.3

O=C(O)CCC(=O)C(=O)O [α-ketoglutaric acid]
pEC50_value (receptor oxgr1_human (OXGR1), Oxoglutarate receptors): 4.5

C[C@@H](O)CC(=O)O [β-D-hydroxybutyric acid]
pEC50_value (receptor hcar2_human (HCAR2), Hydroxycarboxylic acid receptors): 3.1

NCCC(=O)O [β-alanine]
pEC50_value (receptor mrgrd_human (MRGPRD), Class A orphans): 4.8

NCCc1ccccc1 [β-phenylethylamine]
pEC50_value [4]: 7

(-)-adrenaline
pKi_value (receptor ada1a_human (ADRA1A, P35348)): 6.5 | pKi_value (receptor ada1b_human (ADRA1B, P35368)): 6.5 | pKi_value (receptor ada1d_human (ADRA1D, P25100)): 7.2 | pKi_value (receptor ada2a_human (ADRA2A, P08913)): 7.4 | pKi_value (receptor ada2b_human (ADRA2B, P18089)): 5.2 | pKi_value (receptor ada2c_human (ADRA2C, P18825)): 5.8 | pKi_value (receptor adrb1_human (ADRB1, P08588)): 6 | pKi_value (receptor adrb2_human (ADRB2, P07550)): 6.2 | pKi_value (receptor adrb3_human (ADRB3, P13945)): 3.9

Big endothelin-1 (CSCSSLMDKECVYFCHLDIIWVNTPEHVVPYGLGSPRS; not fully specified; ends and bridges not checked; UniProt P05305 53-90, looked up)
pIC50_value (receptor ednra_human (EDNRA, P25101)): 8.5

CCK-4
pIC50_value [13]: 7.5

CCK-8
pIC50_value [13]: 10

CCL2
pIC50_value [14]: 10.2 | pKi_value [15]: 7.8 | pKi_value [16]: 7.5

CCL3
pKi_value [17]: 10.2 | pKi_value [16]: 8.9

CCL5
pKi_value [17]: 8.2 | pKi_value [15]: 9.3 | pKi_value [16]: 9.7 | pEC50_value (receptor gpr75_human (GPR75), Class A orphans): 9.6

CCL7
pKi_value [17]: 8.1 | pIC50_value [14]: 8.7 | pKi_value [15]: 9.2 | pKi_value [16]: 7.5

CCL11
pIC50_value [14]: 7.7 | pIC50_value [15]: 9 | pKi_value [15]: 10 | pIC50_value [16]: 7.7

CCL13
pIC50_value [14]: 8.7 | pIC50_value [15]: 10.3

CCL19
pIC50_value [18]: 9 | pKd_value [18]: 10 | pIC50_value (receptor CCRL2 (ccrl2_human, O00421)): 7.4

CCL20
pIC50_value (receptor CCR6 (ccr6_human, P51684)): 8.5

CCL26
pIC50_value [14]: 8.5 | pIC50_value [15]: 8.9

CST-17
pKi_value (receptor SSTR1 (ssr1_human, P30872)): 9.6 | pKi_value (receptor SSTR2 (ssr2_human, P30874)): 9.3 | pKi_value (receptor SSTR3 (ssr3_human, P32745)): 9.9 | pKi_value (receptor SSTR4 (ssr4_human, P31391)): 9.6 | pKi_value (receptor SSTR5 (ssr5_human, P35346)): 10.2
